Results taken from patent US20170347654A1, “Herbicidal Compounds” (SYNGENTA PARTICIPATIONS AG, priority 2014, published 2017).

Experiments:
Assay in all cases: Post-emergence efficacy (glasshouse)
Assay type in all cases: in vivo
Details in all cases: evaluated after 13 days
Setaria faberi (SETFA) = test system: Setaria faberi (SETFA)
Method: (§1) Seeds of a variety of test species (such as, for example, Solanum nigrum (SOLNI), Amaranthus retoflexus (AMARE), Setaria faberi (SETFA), Echinochloa crusgalli (ECHCG), Ipomoea hederacea (IPOHE) and Lolium perenne (LOLPE)) are sown in standard soil in pots. After 8 days cultivation (post-emergence) under controlled conditions in a glasshouse (at 24/16° C., day/night; 14 hours light; 65% humidity), the plants are sprayed with an aqueous spray solution derived from the formulation of the technical active ingredient in acetone/water (50:50) solution containing 0.5% Tween 20 (polyoxyethylene sorbitan monolaurate, CAS RN 9005-64-5). Compounds are applied at 1000 and 62.5 g/ha. The test plants are then grown under controlled conditions in a glasshouse (at 24/16° C., day/night; 14 hours light; 65% humidity) and watered twice daily. After 13 days, the test is evaluated for the percentage damage caused to the plant. The biological activities are assessed on a five point scale (5=80-100%; 4=60-79%; 3=40-59%; 2=20-39%; 1=0-19%).

[1] = test system: Amaranthus retoflexus (AMARE)
Method: as §1

[2] = test system: Ipomoea hederacea (IPOHE)
Method: as §1

Lolium perenne (LOLPE) = test system: Lolium perenne (LOLPE)
Method: as §1

[3] = test system: Echinochloa crusgalli (ECHCG)
Method: as §1

Solanum nigrum (SOLNI) = test system: Solanum nigrum (SOLNI)
Method: as §1

SMILES	percentage damage caused to the plant, SETFA (five point scale) (Setaria faberi (SETFA); 62.5 g/ha)	percentage damage caused to the plant, SETFA (five point scale) (Setaria faberi (SETFA); 1000 g/ha)	percentage damage caused to the plant, AMARE (five point scale) ([1]; 62.5 g/ha)	percentage damage caused to the plant, AMARE (five point scale) ([1]; 1000 g/ha)	percentage damage caused to the plant, IPOHE (five point scale) ([2]; 62.5 g/ha)	percentage damage caused to the plant, IPOHE (five point scale) ([2]; 1000 g/ha)	percentage damage caused to the plant, LOLPE (five point scale) (Lolium perenne (LOLPE); 62.5 g/ha)	percentage damage caused to the plant, LOLPE (five point scale) (Lolium perenne (LOLPE); 1000 g/ha)	percentage damage caused to the plant, ECHCG (five point scale) ([3]; 62.5 g/ha)	percentage damage caused to the plant, ECHCG (five point scale) ([3]; 1000 g/ha)	percentage damage caused to the plant, SOLNI (five point scale) (Solanum nigrum (SOLNI); 62.5 g/ha)	percentage damage caused to the plant, SOLNI (five point scale) (Solanum nigrum (SOLNI); 1000 g/ha)
C#CCn1c(=O)c(-c2c(Cl)ccc(Cl)c2OCc2ccccc2)c(O)c2scnc21 [Compound 1.001, 6-(2-benzyloxy-3,6-dichloro-phenyl)-7-hydroxy-4-prop-2-ynyl-thiazolo[4,5-b]pyridin-5-one]	5 (5=80-100%)	5 (5=80-100%)	5 (5=80-100%)	5 (5=80-100%)	5 (5=80-100%)	5 (5=80-100%)	5 (5=80-100%)	5 (5=80-100%)	5 (5=80-100%)	5 (5=80-100%)	5 (5=80-100%)	5 (5=80-100%)
C#CCn1c(=O)c(-c2c(F)ccc(Cl)c2OCc2ccccc2)c(O)c2scnc21 [Compound 1.007]	5 (5=80-100%)	5 (5=80-100%)	5 (5=80-100%)	5 (5=80-100%)	5 (5=80-100%)	5 (5=80-100%)	5 (5=80-100%)	5 (5=80-100%)	5 (5=80-100%)	5 (5=80-100%)	5 (5=80-100%)	5 (5=80-100%)
C#CCn1c(=O)c(-c2c(C(F)(F)F)ccc(Cl)c2OCc2ccccc2)c(O)c2scnc21 [Compound 1.009]	5 (5=80-100%)	5 (5=80-100%)	5 (5=80-100%)	5 (5=80-100%)	5 (5=80-100%)	5 (5=80-100%)	5 (5=80-100%)	5 (5=80-100%)	5 (5=80-100%)	5 (5=80-100%)	5 (5=80-100%)	5 (5=80-100%)
Cn1c(=O)c(-c2c(Cl)ccc(Cl)c2OCc2ccccc2)c(O)c2scnc21 [Compound 1.011]	2 (2=20-39%)	5 (5=80-100%)	4 (4=60-79%)	5 (5=80-100%)	5 (5=80-100%)	5 (5=80-100%)	2 (2=20-39%)	5 (5=80-100%)	3 (3=40-59%)	5 (5=80-100%)	5 (5=80-100%)	5 (5=80-100%)
Cn1c(=O)c(-c2c(F)ccc(Cl)c2OCc2ccccc2)c(O)c2scnc21 [Compound 1.017]	1 (1=0-19%)	5 (5=80-100%)	4 (4=60-79%)	5 (5=80-100%)	5 (5=80-100%)	5 (5=80-100%)	4 (4=60-79%)	5 (5=80-100%)	2 (2=20-39%)	5 (5=80-100%)	5 (5=80-100%)	5 (5=80-100%)
Cn1c(=O)c(-c2c(C(F)(F)F)ccc(Cl)c2OCc2ccccc2)c(O)c2scnc21 [Compound 1.019]	3 (3=40-59%)	5 (5=80-100%)	4 (4=60-79%)	5 (5=80-100%)	5 (5=80-100%)	5 (5=80-100%)	3 (3=40-59%)	5 (5=80-100%)	3 (3=40-59%)	5 (5=80-100%)	5 (5=80-100%)	5 (5=80-100%)
O=c1c(-c2c(Cl)ccc(Cl)c2OCc2ccccc2)c(O)c2scnc2n1CC(F)F [Compound 1.021]	4 (4=60-79%)	5 (5=80-100%)	5 (5=80-100%)	5 (5=80-100%)	5 (5=80-100%)	5 (5=80-100%)	4 (4=60-79%)	5 (5=80-100%)	4 (4=60-79%)	5 (5=80-100%)	5 (5=80-100%)	5 (5=80-100%)
O=c1c(-c2c(F)ccc(Cl)c2OCc2ccccc2)c(O)c2scnc2n1CC(F)F [Compound 1.027]	3 (3=40-59%)	5 (5=80-100%)	5 (5=80-100%)	5 (5=80-100%)	5 (5=80-100%)	5 (5=80-100%)	4 (4=60-79%)	5 (5=80-100%)	3 (3=40-59%)	5 (5=80-100%)	5 (5=80-100%)	5 (5=80-100%)
O=c1c(-c2c(C(F)(F)F)ccc(Cl)c2OCc2ccccc2)c(O)c2scnc2n1CC(F)F [Compound 1.029]	2 (2=20-39%)	5 (5=80-100%)	4 (4=60-79%)	5 (5=80-100%)	4 (4=60-79%)	5 (5=80-100%)	2 (2=20-39%)	5 (5=80-100%)	3 (3=40-59%)	5 (5=80-100%)	5 (5=80-100%)	5 (5=80-100%)
